Experimental data reported in paper PMC4314249, “Characterizing the Peroxisome Proliferator-Activated Receptor (PPARγ) Ligand Binding Potential of Several Major Flame Retardants, Their Metabolites, and Chemical Mixtures in House Dust” (Environmental Health Perspectives, 2014).
Where two headings read alike, the source gives them in different places.

Experiments:
[1] = target: T1, human PPARγ ligand-binding domain (Homo sapiens, UniProt P37231); assay: PolarScreen PPARγ-Competitor fluorescence polarization ligand binding assay
T1 construct: The kit uses the human-derived recombinant PPARγ LBD tagged with an N-terminal GST-tag; purchased Invitrogen
T1 sequence (P37231 238-503 limits assumed): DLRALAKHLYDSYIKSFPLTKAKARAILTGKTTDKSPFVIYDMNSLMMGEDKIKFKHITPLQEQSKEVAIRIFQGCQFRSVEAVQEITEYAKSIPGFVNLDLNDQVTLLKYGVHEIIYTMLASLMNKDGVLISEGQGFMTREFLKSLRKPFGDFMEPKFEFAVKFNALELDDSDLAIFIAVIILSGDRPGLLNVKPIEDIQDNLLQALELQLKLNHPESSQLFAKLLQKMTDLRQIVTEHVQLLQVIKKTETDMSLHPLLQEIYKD

PPARγ2 = system: PPARγ2; parameters: method as in Suzuki et al. (2013); settings: U2OS reporter assay; ref Suzuki et al. (2013); cited from earlier work
PPARγ LBD = target: T2, PPARγ LBD (Homo sapiens, UniProt P37231); assay: PPARγ competitive binding after bioactivation with rat liver S9 fraction (active vs inactive S9); settings: 100 μM, n = 3, rat liver S9
T2 construct: The kit uses the human-derived recombinant PPARγ LBD tagged with an N-terminal GST-tag; purchased Invitrogen
T2 sequence (P37231 238-503 limits assumed): T1 sequence (P37231 238-503 limits assumed)

[2] = MEHP formation on incubation of dust with S9 fraction; format: in vitro ADME, Sprague-Dawley rats
Procedure: Bioactivation of dust samples. We assessed the influence of biotransformation on ligand binding activity by incubating dust extracts in pooled liver S9 fractions prepared from Sprague-Dawley rats [Rat (Sprague-Dawley) S9 Fractions; Gibco, Grand Island, NY). Bioactivation was assessed in 7 of the 23 dust samples (1 dust sample was tested in triplicate, while the others were tested once because of dust mass limitations) and in SRM 2585 (n = 3). The 7 dust samples were from groups A (samples 5, 7, and 8), B (samples 9 and 10), and C (samples 11 and 12). The influence of biotransformation was also investigated using pure chemical standards. DEHP (100 μM) and a mixture (MIX) containing 1 μM each of FM550, isopropylated triaryl phosphate (ITP), BDE-47, BDE-99, and DEHP were evaluated for binding activity before and after bioactivation. For a detailed description of the method, see Supplemental Material, “Bioactivation of Dust Samples” and Figure S3. Briefly, dust samples were bioactivated by incubation with an S9 fraction (1 mg protein/mL), extracted, and cleaned by dextran-assisted liquid–liquid extraction and phenolic extraction. […]
For each dose level of tested compounds, triplicate samples were prepared and each well was read five times in the plate reader. […]

[3] = read-out: Kd (dissociation constant)
[4] = calculated from IC50 by equation 3, read-out: Kd (dissociation constant)

Structure (SMILES) | IC50 [1] [µM] | Kd [1] [µM] | Relative potency [1] | IC50 ([1]; read-out: IC50) [µM] | Kd [1, 3] [µM] | also measured
Oc1c(Br)cc(Br)cc1Br [2,4,6-TBP, 2,4,6-Tribromophenol] | 36.3 | 18.9 | 0.0063 | – | – | –
Oc1c(Cl)cc(Cl)cc1Cl [2,4,6-TCP, 2,4,6,-trichlorophenol] | – | – | 0.0023 | 100 | 52.2 | –
Oc1c(F)cc(F)cc1F [2,4,6-TFP, 2,4,6-trifluorophenol] | – | – | – | > 250 | – | Kd [1, 4]: > 130 µM
Oc1c(I)cc(I)cc1I [2,4,6-TIP, 2,4,6-triiodophenol] | 1.84 | 0.96 | 0.1250 | – | – | –
Oc1c(Br)ccc(Oc2ccc(Br)cc2Br)c1Br [3-OH-BDE-47] | – | – | 0.9583 | 0.24 | 0.13 | –
Oc1cc(Oc2ccc(Br)cc2Br)c(Br)cc1Br [5-OH-BDE-47] | – | – | 0.0744 | 3.09 | 1.61 | –
Oc1cc(Oc2cc(Br)c(Br)cc2Br)c(Br)cc1Br [5´-OH-BDE-99] | – | – | 0.0077 | 30 | 15.7 | –
Oc1cc(Br)cc(Br)c1Oc1ccc(Br)cc1Br [6-OH-BDE-47] | – | – | < 0.023 | > 10 | > 5.22 | PPARγ binding (in words) [1]: not active ligands
Oc1cc(Br)cc(Br)c1Oc1cc(Br)c(Br)cc1Br [6´-OH-BDE-99] | – | – | < 0.0046 | > 50 | > 26.1 | PPARγ binding (in words) [1]: not active ligands
Brc1ccc(Oc2ccc(Br)cc2Br)c(Br)c1 [BDE-47, 2,2´,4,4´-tetrabromodiphenyl ether] | – | – | – | > 12 | > 6.25 | 5% induction concentration (PPARγ2): 10 µM
Brc1ccc(Oc2cc(Br)c(Br)cc2Br)c(Br)c1 [BDE–99, 2,2´,4,4´,5-pentabromodiphenyl ether] | – | – | – | > 250 | > 130 | PPARγ binding (in words) [1]: no binding was observed
CC(C)(c1ccc(O)cc1)c1ccc(O)cc1 [BPA, bisphenol A] | – | – | – | > 250 | > 130 | PPARγ binding (in words) [1]: did not exhibit any binding
CCCCC(CC)COC(=O)c1ccccc1C(=O)OCC(CC)CCCC (centres unmarked) [DEHP, di-(2-ethylhexyl) phthalate] | – | – | – | > 250 | – | Kd [1, 4]: > 130 µM; change of PPARγ binding potency after bioactivation (in words) (PPARγ LBD): slightly increased
O=P(O)(Oc1ccccc1)Oc1ccccc1 [DPP, diphenyl phosphate] | 627 | 327 | 0.0004 | – | – | –
CCCCC(CC)COC(=O)c1ccccc1C(=O)O (centres unmarked) [MEHP, mono(2-ethylhexyl) phthalate] | – | – | – | – | – | MEHP formation rate [2]: approximately 70 pmol/mg protein/min
CCCCC(CC)COC(=O)c1cc(Br)c(Br)c(Br)c1Br (centres unmarked) [TBB, 2-ethylhexyl-2,3,4,5-tetrabromobenzoate] | > 250 | > 130 | – | – | – | PPARγ binding (in words) [1]: did not show any binding activity
O=C(O)c1cc(Br)c(Br)c(Br)c1Br [TBBA, 2,3,4,5-tetrabromo benzoic acid] | 42 | 22.1 | 0.0055 | – | – | –
CCCCOCCOP(=O)(OCCOCCCC)OCCOCCCC [TBEP, tris(2-butoxyethyl) phosphate] | 103 | 53.7 | 0.0022 | – | – | –
CCCCC(CC)COC(=O)c1c(Br)c(Br)c(Br)c(Br)c1C(=O)OCC(CC)CCCC (centres unmarked) [TBPH, bis(2-ethylhexyl) tetrabromophthalate] | > 250 | > 130 | – | – | – | PPARγ binding (in words) [1]: did not show any binding activity
CC(C)(c1cc(Cl)c(O)c(Cl)c1)c1cc(Cl)c(O)c(Cl)c1 [TCBPA, 3,3´,5,5´-tetrachlorobisphenol A] | – | – | 0.0444 | 5.18 | 2.7 | –
O=P(Oc1ccccc1)(Oc1ccccc1)Oc1ccccc1 [TPP, triphenyl phosphate] | 40 | 20.9 | 0.0058 | – | – | –
[Cl][Sn]([c]1ccccc1)([c]1ccccc1)[c]1ccccc1 [TPT, triphenyltin chloride] | – | – | 0.1337 | 1.72 | 0.9 | –
Oc1cc(Cl)ccc1Oc1ccc(Cl)cc1Cl [Triclosan, triclosan] | 12.5 | 6.52 | 0.0184 | – | – | –
